26 compounds from PubChem BioAssay (NCI) can be followed below.

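1) Cells in 96-well plates. 2) Compound, 48 h, 5 concentrations. 3) Linear interpolation between surrounding doses. 4) Unreached endpoint = highest concentration. GI50 = concentration required for 50% inhibition of growth. The concentration for full growth arrest is given as TGI.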

One assay relates to SF-539 CNS. Description: NCI anticancer screen, dose series, 48 h.
`CCOC(=O)CC(=O)ON(C)C(C)=O`: the TGI is > 100 µM.

As for `COc1cc(NCc2ccc3oc(=O)c(-c4ccccc4)nc3c2)cc(OC)c1OC`, the TGI is > 10 µM.

As to `CCc1cc(Cc2cc(CC)c(NC(=O)C(=O)Cc3ccccn3)c(CC)c2Cl)c(Cl)c(CC)c1NC(=O)C(=O)Cc1ccccn1`, the TGI is > 100 µM.

Regarding `CC(C)OP(=O)(OC(C)C)C(=NCCN=C(NNc1ccc([N+](=O)[O-])cc1)P(=O)(OC(C)C)OC(C)C)NNc1ccc([N+](=O)[O-])cc1`, the TGI is > 100 µM.

On to `COC(OC)C(C)CC(=O)N(C)C` (stereo unspecified), for which the TGI is > 100 µM.

In the case of `O=S1(=O)OCCOS(=O)(=O)C1Br`, the TGI is > 100 µM.

With `C#CC1(O)CCC2C3CCc4cc(Oc5nc(F)nc(-c6c7ccccc7c7sc8ccccc8n67)n5)ccc4C3CC[C@@]21C` (stereo partly specified), the TGI was > 100 µM.

`CC(=O)/C(=C\c1cccc([N+](=O)[O-])c1)C(=O)Nc1ccccc1C`: the TGI was > 100 µM.

As for `Clc1ccc(C(c2ccc(Cl)cc2)c2ccccn2)cc1`, the TGI came to 33.7 µM.

Turning to `O=c1cc(-c2ccccc2)oc2cc(OCCCOc3ccc4c(=O)cc(-c5ccccc5)oc4c3)ccc12`, the TGI was > 100 µM.

The subject of the next assay is OVCAR-3 ovarian. Description: NCI anticancer screen, dose series, 48 h.
Turning to `CCOC(=O)NC(=O)c1cn(CCCO)c(=O)[nH]c1=O`, the TGI is > 100 µM.

As to `CCN1c2ccccc2C(C(SC)S(=O)(=O)c2ccc(C)cc2)c2c1[nH]c(=O)n(C)c2=O` (stereo unspecified), the TGI is > 100 µM.

Turning to `Cc1cc(-c2ccc3nc(C4CCOCC4)n(CCOC(F)(F)F)c3c2)cn(C)c1=O`, the TGI came to 3.94 µM.

For the compound `COc1cc(/C=C2\CN(S(=O)(=O)c3ccccc3)C/C(=C\c3cc(CN4CCCC4)c(O)c(OC)c3)C2=O)cc(CN2CCCC2)c1O`, the GI50 was 1.02 µM and the TGI was 3.05 µM.

`COc1cc(C2c3cc4c(cc3OC(C)(O)C2C)OCO4)cc(OC)c1OC` (stereo unspecified): the TGI was > 100 µM.

Consider `COc1ccc([C@H]2[C@@H](F)C(=O)N2c2cc(OC)c(OC)c(OC)c2)cc1F`, for which the GI50 was 0.0465 µM and the TGI worked out at 0.492 µM.

Take `CCCCCCN(CCCCCC)C(=O)Cc1c2n(c3ccccc13)Cc1ccccc1-2`: the TGI is > 100 µM.

As for `CC(=O)[C@@]12O[C@@H]1CC1C3CCC4=CC(O)CCC4(C)C3CCC12C` (stereo partly specified), the GI50 was 78.5 µM and the TGI was > 100 µM.

Regarding `Brc1ccccc1C1SCc2nc3ccccc3n21` (stereo unspecified), the TGI was 26.7 µM.

Turning to `ClCc1cccc(Cn2cnc3ncnc(Cl)c32)c1`, the GI50 was 1.77 µM and the TGI was determined as 3.23 µM.

In the case of `OCC#Cc1ccccc1C#Cc1ccccc1`, the GI50 is 6.9 µM and the TGI turned out to be 20.3 µM.

Take `Cn1c2ccccc2c2cc(-c3ccccc3)c3c(c21)C(=O)c1ccccc1C3=O`: the TGI was determined as 36.4 µM.

On to `CN(C)c1ccc(/C=C(\NC(=O)c2ccccc2)c2nc3ncncc3[nH]2)cc1`, for which the TGI was > 100 µM.

`CC1=CC(O)(c2ccc(-c3ccccc3Cl)cc2)OC1=O` (stereo unspecified): the TGI was > 100 µM.

Turning to `O=C(Nc1ccc(Cl)cc1)c1cccc(NC2=C(Cl)C(=O)N(Cc3ccccc3)C2=O)c1`, the GI50 was 8.04 µM and the TGI turned out to be 47 µM.

Regarding `CC[C@H](Nc1ncnc2nc[nH]c12)c1oc2ccccc2c(=O)c1-c1cccc(F)c1`, the GI50 is 18.3 µM and the TGI was > 100 µM.

For `CCOC(=O)CC(=O)ON(C)C(C)=O`, the TGI is > 100 µM.

Consider `COc1cc(NCc2ccc3oc(=O)c(-c4ccccc4)nc3c2)cc(OC)c1OC`, for which the TGI was > 10 µM.

As for `CCc1cc(Cc2cc(CC)c(NC(=O)C(=O)Cc3ccccn3)c(CC)c2Cl)c(Cl)c(CC)c1NC(=O)C(=O)Cc1ccccn1`, the TGI was > 100 µM.

In the case of `CC(C)OP(=O)(OC(C)C)C(=NCCN=C(NNc1ccc([N+](=O)[O-])cc1)P(=O)(OC(C)C)OC(C)C)NNc1ccc([N+](=O)[O-])cc1`, the TGI was 33.4 µM.

Consider `COC(OC)C(C)CC(=O)N(C)C` (stereo unspecified), for which the TGI was > 100 µM.

Regarding `O=S1(=O)OCCOS(=O)(=O)C1Br`, the TGI is > 100 µM.

With `C#CC1(O)CCC2C3CCc4cc(Oc5nc(F)nc(-c6c7ccccc7c7sc8ccccc8n67)n5)ccc4C3CC[C@@]21C` (stereo partly specified), the TGI was > 100 µM.

On to `CC(=O)/C(=C\c1cccc([N+](=O)[O-])c1)C(=O)Nc1ccccc1C`, for which the TGI was > 100 µM.

Consider `O=c1cc(-c2ccccc2)oc2cc(OCCCOc3ccc4c(=O)cc(-c5ccccc5)oc4c3)ccc12`, for which the TGI was > 100 µM.

The next assay has as its system HCT-15 colon. Nature of the assay: NCI anticancer screen, dose series, 48 h.
With `CCOC(=O)NC(=O)c1cn(CCCO)c(=O)[nH]c1=O`, the TGI is > 100 µM.

As to `CCN1c2ccccc2C(C(SC)S(=O)(=O)c2ccc(C)cc2)c2c1[nH]c(=O)n(C)c2=O` (stereo unspecified), the TGI was > 100 µM.

`Cc1cc(-c2ccc3nc(C4CCOCC4)n(CCOC(F)(F)F)c3c2)cn(C)c1=O` gave a TGI of 4.23 µM.

For `COc1cc(/C=C2\CN(S(=O)(=O)c3ccccc3)C/C(=C\c3cc(CN4CCCC4)c(O)c(OC)c3)C2=O)cc(CN2CCCC2)c1O`, the GI50 is 2.3 µM and the TGI stood at 7.6 µM.

As for `COc1cc(C2c3cc4c(cc3OC(C)(O)C2C)OCO4)cc(OC)c1OC` (stereo unspecified), the TGI was > 100 µM.

With `COc1ccc([C@H]2[C@@H](F)C(=O)N2c2cc(OC)c(OC)c(OC)c2)cc1F`, the GI50 is 0.0664 µM and the TGI is > 100 µM.

Turning to `CCCCCCN(CCCCCC)C(=O)Cc1c2n(c3ccccc13)Cc1ccccc1-2`, the TGI was > 100 µM.

As for `CC(=O)[C@@]12O[C@@H]1CC1C3CCC4=CC(O)CCC4(C)C3CCC12C` (stereo partly specified), the GI50 is 33.1 µM and the TGI is > 100 µM.

The compound `Brc1ccccc1C1SCc2nc3ccccc3n21` (stereo unspecified) registered a TGI of 25.4 µM.

Take `ClCc1cccc(Cn2cnc3ncnc(Cl)c32)c1`: the GI50 is 1.96 µM and the TGI turned out to be 4.34 µM.

For `OCC#Cc1ccccc1C#Cc1ccccc1`, the GI50 was 11.5 µM and the TGI stood at 24.8 µM.

Consider `CN(C)c1ccc(/C=C(\NC(=O)c2ccccc2)c2nc3ncncc3[nH]2)cc1`, for which the TGI is > 100 µM.

On to `CC1=CC(O)(c2ccc(-c3ccccc3Cl)cc2)OC1=O` (stereo unspecified), for which the TGI is > 100 µM.

On to `O=C(Nc1ccc(Cl)cc1)c1cccc(NC2=C(Cl)C(=O)N(Cc3ccccc3)C2=O)c1`, for which the GI50 was 12.2 µM and the TGI is 26.9 µM.

On to `CC[C@H](Nc1ncnc2nc[nH]c12)c1oc2ccccc2c(=O)c1-c1cccc(F)c1`, for which the GI50 is 26.9 µM and the TGI was > 100 µM.

On to `CCOC(=O)CC(=O)ON(C)C(C)=O`, for which the TGI was > 100 µM.

`COc1cc(NCc2ccc3oc(=O)c(-c4ccccc4)nc3c2)cc(OC)c1OC`: the TGI is > 10 µM.
